The source of these data is US20260159521A1, “RET-LDD PROTEIN INHIBITORS” (Bristol-Myers Squibb Company, priority 2022, published 2026).

The target in this assay is RET kinase (Homo sapiens, UniProt P07949). Briefly: time resolved FRET-based competition binding assay (RET HTRF). In general terms: In TR-FRET formats the signal depends on donor and acceptor labels being close together.

Each structure is given as a SMILES string.

Sequence of RET kinase (P07949 29-1114): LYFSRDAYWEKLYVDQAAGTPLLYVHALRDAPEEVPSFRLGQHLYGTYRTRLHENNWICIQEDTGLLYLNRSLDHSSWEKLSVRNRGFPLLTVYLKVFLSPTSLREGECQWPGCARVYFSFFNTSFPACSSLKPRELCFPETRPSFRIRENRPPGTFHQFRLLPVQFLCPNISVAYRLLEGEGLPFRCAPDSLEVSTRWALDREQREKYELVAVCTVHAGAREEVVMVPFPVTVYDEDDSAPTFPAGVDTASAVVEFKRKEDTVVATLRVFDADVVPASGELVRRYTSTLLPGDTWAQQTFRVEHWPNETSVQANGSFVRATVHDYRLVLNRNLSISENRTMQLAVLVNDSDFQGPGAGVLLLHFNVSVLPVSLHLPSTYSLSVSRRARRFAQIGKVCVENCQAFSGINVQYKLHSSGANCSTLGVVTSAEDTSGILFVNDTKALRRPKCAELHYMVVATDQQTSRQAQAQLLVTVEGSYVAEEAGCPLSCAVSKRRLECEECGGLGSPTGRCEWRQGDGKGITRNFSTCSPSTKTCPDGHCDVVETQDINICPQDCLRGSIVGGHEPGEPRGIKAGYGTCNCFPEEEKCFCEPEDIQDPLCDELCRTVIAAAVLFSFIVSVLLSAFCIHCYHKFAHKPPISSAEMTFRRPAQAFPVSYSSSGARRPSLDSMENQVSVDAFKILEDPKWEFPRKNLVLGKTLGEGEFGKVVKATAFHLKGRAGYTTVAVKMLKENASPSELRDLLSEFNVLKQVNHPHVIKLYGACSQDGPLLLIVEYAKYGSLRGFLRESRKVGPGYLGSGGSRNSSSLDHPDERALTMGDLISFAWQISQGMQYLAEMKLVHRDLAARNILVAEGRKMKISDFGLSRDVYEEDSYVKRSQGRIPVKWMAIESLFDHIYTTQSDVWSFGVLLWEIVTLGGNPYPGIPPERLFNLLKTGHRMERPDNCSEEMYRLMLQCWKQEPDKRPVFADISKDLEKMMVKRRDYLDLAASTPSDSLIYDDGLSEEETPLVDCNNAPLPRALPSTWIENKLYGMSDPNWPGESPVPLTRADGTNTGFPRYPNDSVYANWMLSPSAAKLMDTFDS
Protocol: Cellular RET Binding Assay A time resolved FRET-based competition binding assay was used to assess compound binding to RET kinase (Thermo Fisher, PR7355A). […] Two (2) L of the reaction solution was dispensed into wells of a 1536 plate (Black Low Binding Polystyrene 1536 Plate, Corning, 3724) containing 10 nL of compounds of interest serially diluted in DMSO. The plate was incubated at room temperature for 1 h. FRET was measured using an EnVision plate reader (Excitation: 340 nm, Emission: 520 nm/495 nM). Total signal (0% inhibition) was calculated from wells containing 10 nL DMSO only.

The IC50 is the concentration needed to halve the response being measured. A high value points to weaker potency. In the case of `COCc1ccc(NC(=O)c2c(-c3ccc(C=O)cc3)c(C(C)C)n3ncnc(N)c23)cc1` [Example 10, 4-amino-6-(4-formylphenyl)-7-isopropyl-N-(4-(methoxymethyl)phenyl)pyrrolo[2,1-f][1,2,4]triazine-5-carboxamide], the IC50 stood at 37 nM.
